Consider one compound from PMC10441804, “Insect fungal pathogens secrete a cell wall-associated glucanase that acts to help avoid recognition by the host immune system” (PLOS Pathogens, 2023).

The target of the test is T1, BbEng1 (Beauveria bassiana, UniProt J4W7P1).
T1 construct: gene BBA_04753; full precursor 588 aa, 21-residue signal peptide removed; GH16 domain 22-343; expressed in Pichia pastoris GS115 (pPIC9K), purified, detected by anti-His tag
Nature of the test: glucose release, glucose oxidase method. Type of test: biochemical. The note with it: pH 6.0 (50 mM sodium acetate buffer), 37 °C, 1 h.

T1 sequence (J4W7P1 entry or part of it): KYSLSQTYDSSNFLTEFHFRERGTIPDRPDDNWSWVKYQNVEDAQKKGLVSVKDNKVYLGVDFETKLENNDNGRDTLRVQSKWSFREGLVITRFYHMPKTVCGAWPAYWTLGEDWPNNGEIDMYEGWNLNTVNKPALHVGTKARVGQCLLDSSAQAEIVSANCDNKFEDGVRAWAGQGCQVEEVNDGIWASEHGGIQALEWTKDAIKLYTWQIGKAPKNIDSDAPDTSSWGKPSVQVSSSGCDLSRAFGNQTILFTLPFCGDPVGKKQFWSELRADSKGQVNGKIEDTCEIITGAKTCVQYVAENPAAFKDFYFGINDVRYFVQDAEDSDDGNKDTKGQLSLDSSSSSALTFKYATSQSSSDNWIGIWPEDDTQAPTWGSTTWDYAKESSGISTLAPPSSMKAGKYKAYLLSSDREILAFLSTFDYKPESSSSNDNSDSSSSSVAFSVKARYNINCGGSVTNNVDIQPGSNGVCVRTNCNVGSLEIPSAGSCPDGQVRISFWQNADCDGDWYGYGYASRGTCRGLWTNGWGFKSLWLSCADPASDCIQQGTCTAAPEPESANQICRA

Turning to `OC[C@H]1O[C@@H](O[C@@H]2[C@@H](O)[C@H](O[C@@H]3[C@@H](O)[C@H](O[C@H]4[C@H](O)[C@@H](CO)OC(O)[C@@H]4O)O[C@H](CO)[C@H]3O)O[C@H](CO)[C@H]2O)[C@H](O)[C@@H](O)[C@@H]1O` (stereo partly shown) [laminaritetraose], the “glucose release, glucose oxidase method” value was “Measurement of glucanase activity indicated release of reducing sugar from laminaritetraose (β-1,3-glucose)”.
